The nature of data set [1]: Contact angle of polypropylene glycol oil drop on surface-modified metal (Goniometer). In kind it is physicochemical.
The format of data set [2] is physicochemical. The method, then:
The "alcohol-soluble/water-insoluble oil" (component (b)) is preferably characterized as having a minimum solubility in the selected alcohol of at least about 0.4 wt. % at 25°C at 1 atm pressure, preferably greater than 1.0 wt, % at 25°C at 1 atm pressure. The "alcohol-soluble/-water-insoluble oil" component is further characterized as being practically insoluble in a 50/50 (weight basis) mixture of the alcohol and water such that the alcohol-soluble/water-insoluble oil has a solubility in the alcohol/water mixture of less than about 0.25 wt. % at 25°C and a pressure of 1 atm, preferably less than about 0.05 at 25°C and a pressure of 1 atm. The solubility of the alcohol-soluble/water-insoluble oil in the alcohol or alcohol/water may be determined by equilibrating a concentration sequence of the oil in the alcohol under stirred conditions. After saturation for 2 hours at the specified temperature, any excess over saturation is estimated from the appearance of the solution. Insolubility is easily detected by visual observation. Formation of two distinctive phases or a turbid suspension indicates substantial insolubility. Turbidity and transmittance can be used to objectively determine if any insoluble material is present as a suspension. For example, when ethylene glycol (EG) or 1/1 mixture of EG/water are used for calibration, they both have a turbidity of 0.7 NTU (Nephelometric Turbidity Unit as measured with the HACH model 2100A turbidimeter) and 100% transmittance (or absorbance=0) measured with filtered light with 470nm wavelength using a Brinkmann PC/600 spectrophotometer. […] When 0.6% hexanol was added to the 1/1 EG/water solution, the turbidity […] to 1.9 NTU and the transmittance decreased to 98% (absorbance of 0.01). When 1% hexanol was added to 1/1 EG/water, the turbidity increased to 3 NTU and the transmittance decreased to 93% (absorbance of 0.03). […]

The nature of data set [3]: Contact angle of polypropylene glycol oil drop on surface-modified metal (Goniometer). In kind it is physicochemical. Conditions: 0.1 wt. percent surface modifier. From the text: The effectiveness of a surface modifier compound in modifying the metal surface to be treated with a alcohol-soluble/water-insoluble oil may be evaluated by first treating a metal surface with a selected surface modifier compound. A selected oil droplet is then placed on the modified metal surface and the contact angle measured using a Goniometer.
A series of contact angle measurements were made using for convenience, a polypropylene glycol having a molecular weight of about 1000 as the oil. The contact angle measurement is made by placing the drop of polypropylene glycol on an aluminum surface submerged in a solution having 0.1 wt. percent of a selected surface modifier compound in an aqueous working antifreeze solution having 67% weight percent water, a reserve alkalinity of 50, in borate buffered glycol and having a selected pH of approximately 8. The measured contact angles were as follows:
Several additional surface modifiers were evaluated according to the above procedure to determine their use in wetting the surface of one or more metals commonly employed in automotive cooling systems. The contact angles for aluminum (Al) cast iron (Fe), steel, brass, ASTM solder (ASTM), copper (Cu) and Modine solder (Modine) were measured according to the procedure of this Example 2 using the following surface modifiers: […]

Where two headings read alike, the source gives them in different places.

With `CCCCCCCC/C=C\CCCCCCCC(=O)O` [oleic acid], the CONTACT ANGLES (At 5 Minutes) Modine Solder stood at 68 ° in data set [1] (0.02% surface modifier), 52 ° in data set [1] (0.05% surface modifier) and 51 ° in data set [1] (0.1% surface modifier).
For `CCCCCCO` [hexanol], the values for the turbidity in data set [2] (0.6% in 1/1 EG/water) and in data set [2] (1% in 1/1 EG/water) were 1.9 NTU and 3 NTU, respectively. For the same compound, in data set [2] (below the solubility limit (5% in EG and 0.2% in 1/1 EG/water)), the turbidity and transmittance result is recorded as “stayed essentially the same as that of the solvent”.
As for `CCCCCCCCCCCC(=O)O` [lauric acid], the CONTACT ANGLES (At 5 Minutes) Modine Solder in data set [1] (0.05% surface modifier) is 117 °.
On to “BUO(PO)₅C₃H₆5 Si (CH₃O)₃ [PO functional silane]”, for which the CONTACT ANGLES (At 5 Minutes) Modine Solder in data set [1] (0.1% surface modifier) amounted to 138 °. In data set [3], this compound gave a CONTACT ANGLES (At 5 Minutes) ASTM Solder of 138 °, a CONTACT ANGLES (At 5 Minutes) Al of 139 °, a CONTACT ANGLES (At 5 Minutes) Brass of 63 ° and a CONTACT ANGLES (At 5 Minutes) Cu of 27 °. In data set [3], the CONTACT ANGLES (At 5 Minutes) Fe was found to be 90 ° and the CONTACT ANGLES (At 5 Minutes) Steel is 65 °.
Take C₁₅hydroxyalkanesulfonate: in data set [1] (0.1% surface modifier), the CONTACT ANGLES (At 5 Minutes) Modine Solder is 120 °. In data set [3], this compound yielded a CONTACT ANGLES (At 5 Minutes) ASTM Solder of 150 °, a CONTACT ANGLES (At 5 Minutes) Al of 145 °, a CONTACT ANGLES (At 5 Minutes) Brass of 57 ° and a CONTACT ANGLES (At 5 Minutes) Cu of 58 °. Besides, in data set [3], the CONTACT ANGLES (At 5 Minutes) Fe worked out at 108 ° and the CONTACT ANGLES (At 5 Minutes) Steel amounted to 160 °.
